This note sets out measurements from ChEMBL document CHEMBL4610062, “Cytotoxic and non-cytotoxic cardiac glycosides isolated from the combined flowers, leaves, and twigs of Streblus asper” (Bioorg Med Chem, 2020).

One test deals with OVCAR-3. In words: Cytotoxicity against human OVCAR3 cells assessed as inhibition of cell viability incubated for 72 hrs by MTS assay. It is filed as functional, cell-based. The note with it: OVCAR-3, 72 h.
Test [1] can be described thus: Cytotoxicity against human MDA-MB-435 cells assessed as inhibition of cell viability incubated for 72 hrs by MTS assay.
The next test relates to HT-29. In words: Cytotoxicity against human HT-29 cells assessed as inhibition of cell viability incubated for 72 hrs by MTS assay. The format is functional, cell-based. The note with it: HT-29, 72 h. On the technique in general: Tetrazolium dyes change colour on reduction, which living cells bring about.
Test [2] can be described thus: Inhibition of Sodium/potassium-transporting ATPase in porcine cerebral cortex using ATP as substrate incubated for 15 mins by ADP-Glo Max Assay. The arrangement: species or system Sus scrofa.

Structures are written as SMILES.

For orientation: IC50 means the concentration needed to halve the response being measured.

Regarding `CO[C@H]1[C@H](O[C@H]2CC[C@]3(C=O)[C@H]4CC[C@]5(C)[C@](O)(C6=CC(=O)OC6)CC[C@]5(O)[C@@H]4CC[C@]3(O)C2)O[C@H](C)[C@H](O)[C@@H]1OC`, the 50% inhibitory concentration (IC50) is above 20 µM with OVCAR-3, above 20 µM in test [1], above 20 µM with HT-29 and 232 µM in test [2].
With `CO[C@H]1[C@H](O[C@H]2CC[C@]3(C=O)[C@H]4CC[C@]5(C)[C@@H]6CC[C@]5(O[C@H]5OC(=O)C[C@H]56)[C@@H]4CC[C@]3(O)C2)O[C@H](C)[C@H](O)[C@@H]1OC`, the IC50 (in the test with OVCAR-3; in test [1]; in the test with HT-29) was above 20 µM throughout.
In test [2], `C[C@H]1O[C@@H](O[C@H]2[C@@H](O)C[C@H](O[C@H]3[C@@H](O)C[C@H](O[C@H]4CC[C@@]5(C)[C@H](CC[C@@H]6[C@@H]5CC[C@]5(C)[C@@H](C7=CC(=O)OC7)CC[C@]65O)C4)O[C@@H]3C)O[C@@H]2C)C[C@H](O)[C@@H]1O` [DIGITOXIN] showed a concentration for half-maximal inhibition (IC50) of 0.127 µM.
Turning to `CC(=O)O[C@H]1C(=O)[C@@]2(C)[C@H]([C@H](OC(=O)c3ccccc3)[C@]3(O)C[C@H](OC(=O)[C@H](O)[C@@H](NC(=O)c4ccccc4)c4ccccc4)C(C)=C1C3(C)C)[C@]1(OC(C)=O)CO[C@@H]1C[C@@H]2O` [PACLITAXEL], in test [1], the IC50 stood at 0.0015 µM.
